{"source": "patent US11053244B1", "about": "“4-azaindole compounds” (BRISTOL-MYERS SQUIBB COMPANY, priority 2017, dated 2021)", "key": {"TLR7": {"target": "TLR7 (Mus musculus (Mouse), UniProt P58681)", "sequence (P58681 27-1050)": "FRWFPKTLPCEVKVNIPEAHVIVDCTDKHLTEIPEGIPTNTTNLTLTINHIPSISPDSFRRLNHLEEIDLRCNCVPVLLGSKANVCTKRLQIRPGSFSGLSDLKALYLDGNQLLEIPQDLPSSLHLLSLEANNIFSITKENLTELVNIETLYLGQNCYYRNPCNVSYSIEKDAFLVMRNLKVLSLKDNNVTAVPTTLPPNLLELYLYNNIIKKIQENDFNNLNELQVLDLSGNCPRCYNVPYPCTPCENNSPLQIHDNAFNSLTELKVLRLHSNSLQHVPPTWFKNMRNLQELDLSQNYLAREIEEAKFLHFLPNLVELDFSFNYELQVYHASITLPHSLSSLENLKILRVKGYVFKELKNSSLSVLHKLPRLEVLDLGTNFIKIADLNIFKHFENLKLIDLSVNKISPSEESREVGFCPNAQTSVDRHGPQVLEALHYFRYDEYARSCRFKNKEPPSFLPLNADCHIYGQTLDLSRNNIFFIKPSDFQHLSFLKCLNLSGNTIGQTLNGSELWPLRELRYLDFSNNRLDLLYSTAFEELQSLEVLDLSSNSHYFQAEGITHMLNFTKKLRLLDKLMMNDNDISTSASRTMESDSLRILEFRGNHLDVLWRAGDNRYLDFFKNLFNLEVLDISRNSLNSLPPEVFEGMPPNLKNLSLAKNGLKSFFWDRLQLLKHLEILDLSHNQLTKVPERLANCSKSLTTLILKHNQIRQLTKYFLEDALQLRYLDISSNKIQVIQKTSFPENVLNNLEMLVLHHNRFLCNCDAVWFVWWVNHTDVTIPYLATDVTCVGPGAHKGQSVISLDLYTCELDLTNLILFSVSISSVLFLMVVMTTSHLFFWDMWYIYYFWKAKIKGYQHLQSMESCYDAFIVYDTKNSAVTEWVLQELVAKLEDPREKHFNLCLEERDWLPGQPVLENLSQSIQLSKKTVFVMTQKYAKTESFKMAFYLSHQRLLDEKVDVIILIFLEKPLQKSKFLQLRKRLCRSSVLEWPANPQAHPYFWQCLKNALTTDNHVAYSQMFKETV", "assay": "In vivo mouse TLR7 PD model (gardiquimod-induced plasma IL-6 and IFN-alpha)", "settings": "plasma 90 min after gardiquimod, vs vehicle", "method": "In Vivo Mouse TLR7 PD Model:\nAdult male C5-7BL/6 mice were used for the experiments. Mice (7 to 10 per group) were randomized into different treatment groups based on body weight. Mice from the respective treatment groups were administered orally with vehicle or test compound. Thirty min after the oral administration of vehicle or test compound, mice were challenged with intraperitoneal injection of gardiquimod for TLR7 PD model. Ninety minutes after gardiquimod injection, mice were bled under isoflurane anaesthesia and plasma IL-6 and IFN-alpha levels were estimated by using commercially available ELISA kit (BD Biosciences, PBL Life Sciences). At the end of experiment, mean cytokine data was plotted and one way ANOVA with Dunnett's test was performed to calculate the significance of test compound treated group vs. vehicle control group. Percent inhibition of cytokine induction was calculated for test compound treated group vs vehicle control group."}, "human TLR8": {"target": "human TLR8 (Homo sapiens (Human), UniProt Q9NR97)", "sequence (Q9NR97 27-1041)": "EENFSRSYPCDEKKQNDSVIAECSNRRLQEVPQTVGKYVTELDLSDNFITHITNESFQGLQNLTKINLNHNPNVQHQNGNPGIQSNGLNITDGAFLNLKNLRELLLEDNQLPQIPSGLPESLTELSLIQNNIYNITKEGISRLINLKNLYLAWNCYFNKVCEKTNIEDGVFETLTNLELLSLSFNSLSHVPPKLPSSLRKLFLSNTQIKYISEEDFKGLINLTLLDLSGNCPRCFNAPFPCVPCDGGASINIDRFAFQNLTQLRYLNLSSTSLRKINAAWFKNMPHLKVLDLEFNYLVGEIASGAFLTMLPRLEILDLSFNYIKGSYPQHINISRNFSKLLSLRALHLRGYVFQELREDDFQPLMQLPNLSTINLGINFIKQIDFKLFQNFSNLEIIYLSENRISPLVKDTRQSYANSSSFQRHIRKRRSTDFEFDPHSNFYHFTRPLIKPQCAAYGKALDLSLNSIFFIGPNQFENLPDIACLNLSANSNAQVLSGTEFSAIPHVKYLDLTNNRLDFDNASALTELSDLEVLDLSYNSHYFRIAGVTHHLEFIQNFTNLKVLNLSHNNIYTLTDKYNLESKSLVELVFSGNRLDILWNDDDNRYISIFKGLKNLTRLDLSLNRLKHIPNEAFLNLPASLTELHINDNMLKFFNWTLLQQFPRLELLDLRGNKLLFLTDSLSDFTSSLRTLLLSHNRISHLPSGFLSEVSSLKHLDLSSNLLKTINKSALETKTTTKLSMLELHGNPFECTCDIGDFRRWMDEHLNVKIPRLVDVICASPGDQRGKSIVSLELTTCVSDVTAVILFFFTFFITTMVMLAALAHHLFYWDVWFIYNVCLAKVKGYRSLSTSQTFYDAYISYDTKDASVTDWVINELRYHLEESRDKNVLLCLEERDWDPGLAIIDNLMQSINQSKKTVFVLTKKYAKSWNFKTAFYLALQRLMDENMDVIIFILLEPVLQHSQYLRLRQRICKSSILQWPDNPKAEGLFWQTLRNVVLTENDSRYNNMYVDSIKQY", "assay": "TLR8 inhibition reporter assay (HEK-Blue cells, SEAP reporter, R848 stimulation)", "settings": "read-out: TLR8 IC50"}, "human TLR9": {"target": "human TLR9 (Homo sapiens (Human), UniProt Q9NR96)", "sequence (Q9NR96 26-1032)": "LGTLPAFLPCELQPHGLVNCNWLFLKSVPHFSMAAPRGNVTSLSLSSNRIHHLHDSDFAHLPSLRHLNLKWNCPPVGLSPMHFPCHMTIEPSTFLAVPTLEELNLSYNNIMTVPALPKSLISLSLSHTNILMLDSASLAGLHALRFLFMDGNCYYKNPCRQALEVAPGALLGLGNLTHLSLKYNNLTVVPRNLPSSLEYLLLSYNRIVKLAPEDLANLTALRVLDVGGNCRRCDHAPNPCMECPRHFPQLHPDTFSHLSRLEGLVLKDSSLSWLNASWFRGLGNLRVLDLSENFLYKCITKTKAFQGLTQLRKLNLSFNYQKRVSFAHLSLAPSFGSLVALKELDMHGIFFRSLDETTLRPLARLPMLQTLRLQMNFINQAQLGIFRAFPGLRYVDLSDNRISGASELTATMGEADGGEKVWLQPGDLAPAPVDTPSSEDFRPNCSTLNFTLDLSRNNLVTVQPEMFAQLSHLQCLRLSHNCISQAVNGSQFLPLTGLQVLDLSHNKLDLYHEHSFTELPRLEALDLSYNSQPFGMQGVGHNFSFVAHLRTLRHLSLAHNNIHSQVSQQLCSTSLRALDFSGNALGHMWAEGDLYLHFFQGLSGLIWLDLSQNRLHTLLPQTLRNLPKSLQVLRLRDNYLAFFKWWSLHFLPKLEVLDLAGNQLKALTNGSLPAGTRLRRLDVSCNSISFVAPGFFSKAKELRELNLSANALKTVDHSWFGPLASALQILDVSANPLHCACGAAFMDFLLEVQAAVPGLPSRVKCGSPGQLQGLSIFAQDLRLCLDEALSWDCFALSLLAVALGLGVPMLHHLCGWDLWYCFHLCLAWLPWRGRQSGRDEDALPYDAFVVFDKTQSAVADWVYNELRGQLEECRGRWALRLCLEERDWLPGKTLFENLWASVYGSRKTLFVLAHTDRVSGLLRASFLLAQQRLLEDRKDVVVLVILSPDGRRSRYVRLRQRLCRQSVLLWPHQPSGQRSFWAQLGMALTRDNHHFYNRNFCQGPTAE", "assay": "TLR9 inhibition reporter assay (HEK-Blue cells, SEAP reporter, ODN2006 stimulation)", "settings": "read-out: TLR9 IC50"}, "human TLR7": {"target": "human TLR7 (Homo sapiens (Human), UniProt Q9NYK1)", "sequence (Q9NYK1 27-1049)": "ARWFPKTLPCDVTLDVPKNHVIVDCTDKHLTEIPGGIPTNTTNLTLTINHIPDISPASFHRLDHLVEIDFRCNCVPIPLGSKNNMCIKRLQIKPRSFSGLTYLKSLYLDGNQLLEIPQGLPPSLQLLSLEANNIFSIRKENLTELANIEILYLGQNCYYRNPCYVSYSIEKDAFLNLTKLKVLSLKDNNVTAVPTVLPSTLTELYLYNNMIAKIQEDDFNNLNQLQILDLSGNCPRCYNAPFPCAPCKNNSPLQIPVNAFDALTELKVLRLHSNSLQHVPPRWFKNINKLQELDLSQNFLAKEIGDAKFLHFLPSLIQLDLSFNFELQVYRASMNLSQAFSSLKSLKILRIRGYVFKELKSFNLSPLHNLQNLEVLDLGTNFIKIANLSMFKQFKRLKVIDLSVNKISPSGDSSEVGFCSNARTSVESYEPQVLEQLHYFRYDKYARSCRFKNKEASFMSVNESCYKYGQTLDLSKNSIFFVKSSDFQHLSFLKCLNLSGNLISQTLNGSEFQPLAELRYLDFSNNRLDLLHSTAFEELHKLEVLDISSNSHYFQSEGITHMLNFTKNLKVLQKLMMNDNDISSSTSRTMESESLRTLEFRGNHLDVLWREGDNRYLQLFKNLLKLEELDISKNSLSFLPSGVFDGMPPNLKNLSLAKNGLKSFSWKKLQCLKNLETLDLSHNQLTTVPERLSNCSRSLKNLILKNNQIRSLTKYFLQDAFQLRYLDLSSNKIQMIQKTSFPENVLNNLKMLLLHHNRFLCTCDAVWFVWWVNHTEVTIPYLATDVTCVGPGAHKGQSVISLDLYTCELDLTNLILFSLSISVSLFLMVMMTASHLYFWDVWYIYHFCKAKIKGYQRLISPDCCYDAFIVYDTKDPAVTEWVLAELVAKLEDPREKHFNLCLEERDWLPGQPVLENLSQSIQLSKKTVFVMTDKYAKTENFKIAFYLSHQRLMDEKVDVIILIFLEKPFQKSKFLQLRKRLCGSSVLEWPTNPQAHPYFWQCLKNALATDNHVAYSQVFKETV", "assay": "TLR7 inhibition reporter assay (HEK-Blue cells, SEAP reporter, gardiquimod stimulation)", "format": "cell-based"}, "[1]": {"settings": "oral dose 0.003 mg/kg 30 min before i.p. gardiquimod"}, "[2]": {"settings": "oral dose 0.006 mg/kg 30 min before i.p. gardiquimod"}, "[3]": {"settings": "oral dose 0.03 mg/kg 30 min before i.p. gardiquimod"}, "[4]": {"settings": "oral dose 0.15 mg/kg 30 min before i.p. gardiquimod"}, "[5]": {"settings": "oral dose 0.3 mg/kg 30 min before i.p. gardiquimod"}, "[6]": {"settings": "oral dose 0.0015 mg/kg 30 min before i.p. gardiquimod"}, "[7]": {"settings": "oral dose 0.015 mg/kg 30 min before i.p. gardiquimod"}, "[8]": {"settings": "oral dose 0.075 mg/kg 30 min before i.p. gardiquimod"}, "[9]": {"settings": "oral dose 0.005 mg/kg 30 min before i.p. gardiquimod"}, "[10]": {"settings": "oral dose 0.01 mg/kg 30 min before i.p. gardiquimod"}, "[11]": {"settings": "oral dose 0.05 mg/kg 30 min before i.p. gardiquimod"}, "[12]": {"settings": "oral dose 0.25 mg/kg 30 min before i.p. gardiquimod"}, "[13]": {"settings": "oral dose 0.5 mg/kg 30 min before i.p. gardiquimod"}}, "data": [{"smiles": "Cc1c(-c2[nH]c3ccc(C4CCC(N5CC6(C5)CS(=O)(=O)C6)CC4)nc3c2C(C)C)cn2ncnc2c1C", "note": "(stereo not drawn) [Example 438, 6-((1r,4r)-(4-(2-(7,8-dimethyl-[1,2,4]triazolo[1,5-a]pyridin-6-yl)-3-isopropyl-1H-pyrrolo[3,2-b]pyridin-5-yl)cyclohexyl)-2-thia-6-azaspiro[3.3]heptane 2,2-dioxide]", "values": [{"measurement": "% inhibition of IFN-alpha", "setting": "TLR7; [1]", "value": 36, "unit": "%"}, {"measurement": "% inhibition of IL6", "setting": "TLR7; [1]", "value": 25, "unit": "%"}, {"measurement": "% inhibition of IFN-alpha", "setting": "TLR7; [2]", "value": 57, "unit": "%"}, {"measurement": "% inhibition of IL6", "setting": "TLR7; [2]", "value": 41, "unit": "%"}, {"measurement": "% inhibition of IFN-alpha", "setting": "TLR7; [3]", "value": 67, "unit": "%"}, {"measurement": "% inhibition of IL6", "setting": "TLR7; [3]", "value": 56, "unit": "%"}, {"measurement": "% inhibition of IFN-alpha", "setting": "TLR7; [4]", "value": 96, "unit": "%"}, {"measurement": "% inhibition of IL6", "setting": "TLR7; [4]", "value": 78, "unit": "%"}, {"measurement": "% inhibition of IFN-alpha", "setting": "TLR7; [5]", "value": 98, "unit": "%"}, {"measurement": "% inhibition of IL6", "setting": "TLR7; [5]", "value": 82, "unit": "%"}]}, {"smiles": "Cc1c(-c2[nH]c3ccc(N4C[C@H]5C[C@@H]4CN5C4CCOC4)nc3c2C(C)C)cn2ncnc2c1C", "note": "(stereo partly drawn) [Example 771]", "values": [{"measurement": "IC50", "setting": "human TLR8", "value": 9.2, "unit": "nM"}, {"measurement": "IC50", "setting": "human TLR9", "value": 9840, "unit": "nM"}, {"measurement": "IC50", "setting": "human TLR7", "value": 4.3, "unit": "nM"}]}, {"smiles": "Cc1c(-c2[nH]c3ccc(C4CCC(NCC5(S(C)(=O)=O)CC5)CC4)nc3c2C(C)C)cn2ncnc2c1C", "note": "(stereo not drawn) [Example 4, 4-(2-(7,8-dimethyl-[1,2,4]triazolo[1,5-a]pyridin-6-yl)-3-isopropyl-1H-pyrrolo[3,2-b]pyridin-5-yl)-N-((1-(methylsulfonyl)cyclopropyl)methyl)cyclohexan-1-amine]", "values": [{"measurement": "% inhibition of IFN-alpha", "setting": "TLR7; [6]", "value": 0, "unit": "%"}, {"measurement": "% inhibition of IL6", "setting": "TLR7; [6]", "value": 0, "unit": "%"}, {"measurement": "% inhibition of IFN-alpha", "setting": "TLR7; [1]", "value": 33, "unit": "%"}, {"measurement": "% inhibition of IL6", "setting": "TLR7; [1]", "value": 23, "unit": "%"}, {"measurement": "% inhibition of IFN-alpha", "setting": "TLR7; [7]", "value": 74, "unit": "%"}, {"measurement": "% inhibition of IL6", "setting": "TLR7; [7]", "value": 75, "unit": "%"}, {"measurement": "% inhibition of IFN-alpha", "setting": "TLR7; [8]", "value": 93, "unit": "%"}, {"measurement": "% inhibition of IL6", "setting": "TLR7; [8]", "value": 76, "unit": "%"}, {"measurement": "% inhibition of IFN-alpha", "setting": "TLR7; [4]", "value": 99, "unit": "%"}, {"measurement": "% inhibition of IL6", "setting": "TLR7; [4]", "value": 95, "unit": "%"}]}, {"smiles": "Cc1c(-c2[nH]c3ccc(N4CCN(C(=O)CN(C)C)CC4)nc3c2C(C)C)cn2ncnc2c1C", "note": "[Example 3, 1-(4-(2-(7,8-dimethyl-[1,2,4]triazolo[1,5-a]pyridin-6-yl)-3-isopropyl-1H-pyrrolo[3,2-b]pyridin-5-yl)piperazin-1-yl)-2-(dimethylamino)ethan-1-one]", "values": [{"measurement": "% inhibition of IFN-alpha", "setting": "TLR7; [9]", "value": 29, "unit": "%"}, {"measurement": "% inhibition of IL6", "setting": "TLR7; [9]", "value": 0, "unit": "%"}, {"measurement": "% inhibition of IFN-alpha", "setting": "TLR7; [10]", "value": 37, "unit": "%"}, {"measurement": "% inhibition of IL6", "setting": "TLR7; [10]", "value": 24, "unit": "%"}, {"measurement": "% inhibition of IFN-alpha", "setting": "TLR7; [11]", "value": 94, "unit": "%"}, {"measurement": "% inhibition of IL6", "setting": "TLR7; [11]", "value": 75, "unit": "%"}, {"measurement": "% inhibition of IFN-alpha", "setting": "TLR7; [12]", "value": 99, "unit": "%"}, {"measurement": "% inhibition of IL6", "setting": "TLR7; [12]", "value": 90, "unit": "%"}, {"measurement": "% inhibition of IFN-alpha", "setting": "TLR7; [13]", "value": 100, "unit": "%"}, {"measurement": "% inhibition of IL6", "setting": "TLR7; [13]", "value": 91, "unit": "%"}]}]}
